This is an account of results in US20220007687A1, “SHELF STABLE LIQUID FLAVORED CONCENTRATE” (DreamPak LLC, priority 2020, published 2022).

The nature of data set [1]: pH of acid solutions in water (Example 1). The conditions noted are these: 22 g acid in 78 ml water; 2 ml of the mixture diluted in 250 ml water. Format: physicochemical. The procedure: The pH, taste, and mouthfeel of lactic, citric, and malic acids are compared. With each acid, 22 g of the acid is mixed in 78 ml of water, then 2 ml of the mixture is diluted in 250 ml of water, and pH readings of the diluted solutions are obtained.

The nature of data set [2]: pH of acid solutions with sodium citrate buffer (Example 2). Format: physicochemical. The conditions noted are these: for delta pH: buffered concentrate (Example 2) compared to concentrate without buffer (Example 1); for pH: concentrate: 22 g acid, 2 g sodium citrate, 76 ml water. Here is the method: The impact of adding a buffer to solutions of lactic, citric, and malic acid is researched. With each acid, 22 g of the acid is mixed with 2 g of sodium citrate in 76 ml of water, and pH readings of the concentrates are obtained, then 2 ml of the concentrates is diluted in 250 ml of water and the resulting solutions were evaluated for taste and mouthfeel.

Turning to `CC(O)C(=O)O` (stereo not drawn) [Lactic Acid, 2-hydroxypropionic acid], the pH in data set [1] came out at 1.45. Moreover, in data set [2], the “delta pH” value was 1.04 and the pH was determined as 2.49.

Consider `O=C(O)CC(O)C(=O)O` (stereo not drawn) [Malic Acid, malic acid], for which the pH in data set [1] is 1.33. In data set [2], the “delta pH” value is on record as 0.79 and the pH stood at 2.12.

On to `O=C(O)CC(O)(CC(=O)O)C(=O)O` [Citric Acid, citric acid], for which the pH in data set [1] is 1.15. Further, in data set [2], the “delta pH” value was 0.87 and the pH turned out to be 2.02.
